We go through 17 compounds from the supplement of paper PMC10627819.

Assay in all cases: Bliss interaction score (quartile over a dose matrix) (fitness difference); higher = more antagonism (negative = synergy)
The subject of test [1] is B. subtilis 168. The method, boiled down: (§1)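 The Bliss score was calculated by subtracting the expected fitness, the product of single-drug values, from the observed fitness. OD595 at entry into stationary phase, over the plate's robust no-drug mean and capped at 1, served as the fitness readout. Single-drug values were inferred from combination data, and scores are summarised by quartiles across technical, biological and donor/recipient replicates.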

Test [2] concerns S. aureus DSM 20231. The method, boiled down:
as §1

Test [3] deals with S. aureus Newman. The method, boiled down: as §1
Test [4] deals with S. pneumoniae D39V. Summed up: as §1
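Further: first quartile when negative (synergy) and third quartile when positive (antagonism).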

As to `CC(=O)OC[C@H]1O[C@@H]([S-])[C@H](OC(C)=O)[C@@H](OC(C)=O)[C@@H]1OC(C)=O.CCP(CC)CC.[Au+]` [Auranofin] + CC[C@H]1OC(=O)[C@H](C)[C@@H](O[C@H]2C[C@@](C)(OC)[C@@H](O)[C@H](C)O2)[C@H](C)[C@@H](O[C@@H]2O[C@H](C)C[C@H](N(C)C)[C@H]2O)[C@](C)(O)C[C@@H](C)CN(C)[C@H](C)[C@@H](O)[C@]1(C)O [Azithromycin], the Bliss interaction score is 0.0589 in test [1], 0.0282 in test [2], 0.137 in test [3] and -0.038 in test [4].
`N[C@@H]1CONC1=O` [CycloserineD] + CN[C@H](CC(C)C)C(=O)N[C@H]1C(=O)N[C@@H](CC(N)=O)C(=O)N[C@H]2C(=O)N[C@H]3C(=O)N[C@H](C(=O)N[C@H](C(=O)O)c4cc(O)cc(O)c4-c4cc3ccc4O)[C@H](O)c3ccc(c(Cl)c3)Oc3cc2cc(c3O[C@@H]2O[C@H](CO)[C@@H](O)[C@H](O)[C@H]2O[C@H]2C[C@](C)(N)[C@H](O)[C@H](C)O2)Oc2ccc(cc2Cl)[C@H]1O [Vancomycin]: the Bliss interaction score in test [1] is -0.113; in test [2], 0.0736; in test [3], 0.0656; in test [4], -0.069.
For `CC(=O)O[C@H]1C[C@@]2(C)[C@@H](C[C@@H](O)[C@H]3[C@@]4(C)CC[C@@H](O)[C@@H](C)[C@@H]4CC[C@@]32C)/C1=C(\CCC=C(C)C)C(=O)O` [Fusidic acid] + COc1cc(Cc2cnc(N)nc2N)cc(OC)c1OC [Trimethoprim], in that order: 0.112, 0.0265, 0.0427 and -0.0871.
Consider `CC(=O)OC[C@H]1O[C@@H]([S-])[C@H](OC(C)=O)[C@@H](OC(C)=O)[C@@H]1OC(C)=O.CCP(CC)CC.[Au+]` [Auranofin] + Cn1nnc(-c2ccc(-c3ccc(N4C[C@H](CO)OC4=O)cc3F)cn2)n1 [Tedizolid], for which the Bliss interaction score in test [1] was -0.0317; in test [2], -0.0334; in test [3] it was -0.108; in test [4], 0.0602.
Consider `CC[C@H]1OC(=O)[C@H](C)[C@@H](O[C@H]2C[C@@](C)(OC)[C@@H](O)[C@H](C)O2)[C@H](C)[C@@H](O[C@@H]2O[C@H](C)C[C@H](N(C)C)[C@H]2O)[C@](C)(OC)C[C@@H](C)C(=O)[C@H](C)[C@@H](O)[C@]1(C)O` [Clarithromycin] + CC[C@H]1OC(=O)[C@H](C)[C@@H](O[C@H]2C[C@@](C)(OC)[C@@H](O)[C@H](C)O2)[C@H](C)[C@@H](O[C@@H]2O[C@H](C)C[C@H](N(C)C)[C@H]2O)[C@](C)(O)C[C@@H](C)C(=O)[C@H](C)[C@@H](O)[C@]1(C)O [Erythromycin], for which the Bliss interaction score in test [1] was -0.0372; in test [2], 0.0159; in test [3], -0.0296; in test [4] it was 0.0551.
Consider `O=C(N[C@H](CO)[C@H](O)c1ccc([N+](=O)[O-])cc1)C(Cl)Cl` [Chloramphenicol] + CN(C)[C@@H]1C(O)=C(C(N)=O)C(=O)[C@@]2(O)C(O)=C3C(=O)c4c(O)ccc(Cl)c4[C@@](C)(O)[C@H]3C[C@@H]12 [Clortetracycline], for which the Bliss interaction score in test [1] was -0.117; in test [2], 0.0518; in test [3] it was -0.0412; in test [4], -0.0404.
In the case of `CC(=O)O[C@H]1C[C@@]2(C)[C@@H](C[C@@H](O)[C@H]3[C@@]4(C)CC[C@@H](O)[C@@H](C)[C@@H]4CC[C@@]32C)/C1=C(\CCC=C(C)C)C(=O)O` [Fusidic acid] + CC(C1CCC(C(O1)OC2C(CC(C(C2O)OC3C(C(C(CO3)(C)O)NC)O)N)N)N)NC [Gentamicin], the Bliss interaction score is -0.0712 in test [1] (main component drawn), 0.034 in test [2] (main component drawn), 0.0572 in test [3] (main component drawn) and -0.0713 in test [4] (main component drawn).
Turning to `CC(=O)OC[C@H]1O[C@@H]([S-])[C@H](OC(C)=O)[C@@H](OC(C)=O)[C@@H]1OC(C)=O.CCP(CC)CC.[Au+]` [Auranofin] + O=C(O)c1cn(C2CC2)c2cc(N3CCNCC3)c(F)cc2c1=O [Ciprofloxacin], the Bliss interaction score was 0.0472 in test [1], 0.0217 in test [2], 0.0727 in test [3] and -0.11 in test [4].
With `N[C@@H]1CONC1=O` [CycloserineD] + COc1cccc2c1C(=O)c1c(O)c3c(c(O)c1C2=O)C[C@@](O)(C(=O)CO)C[C@@H]3O[C@H]1C[C@H](N)[C@H](O)[C@H](C)O1 [Doxorubicin], the Bliss interaction score was 0.0778 in test [1], 0.0418 in test [2], -0.0446 in test [3] and 0.0698 in test [4].
For `N[C@@H]1CONC1=O` [CycloserineD] + CC1=C\[C@@H](O)CC(=O)Cc2nc(co2)C(=O)N2CCC=C2C(=O)O[C@H](C(C)C)[C@H](C)/C=C/C(=O)NC\C=C\1 [Virginiamycin M1], in that order: -0.0364, 0.101, 0.0587 and -0.0528.
For `CC(=O)O[C@H]1C[C@@]2(C)[C@@H](C[C@@H](O)[C@H]3[C@@]4(C)CC[C@@H](O)[C@@H](C)[C@@H]4CC[C@@]32C)/C1=C(\CCC=C(C)C)C(=O)O` [Fusidic acid] + CC(=O)NC[C@H]1CN(c2ccc(N3CCOCC3)c(F)c2)C(=O)O1 [Linezolid], the Bliss interaction score was -0.141 in test [1], -0.0285 in test [2], -0.0198 in test [3] and -0.1 in test [4].
For `CC(=O)OC[C@H]1O[C@@H]([S-])[C@H](OC(C)=O)[C@@H](OC(C)=O)[C@@H]1OC(C)=O.CCP(CC)CC.[Au+]` [Auranofin] + O=C(O[C@@H]1Cc2c(O)cc(O)cc2O[C@@H]1c1cc(O)c(O)c(O)c1)c1cc(O)c(O)c(O)c1 [EGCG], in that order: 0.0518, -0.0255, -0.0511 and 0.08.
Regarding `N[C@@H]1CONC1=O` [CycloserineD] + CC[C@H]1OC(=O)[C@H](C)[C@@H](O[C@H]2C[C@@](C)(OC)[C@@H](O)[C@H](C)O2)[C@H](C)[C@@H](O[C@@H]2O[C@H](C)C[C@H](N(C)C)[C@H]2O)[C@](C)(O)C[C@@H](C)C(=O)[C@H](C)[C@@H](O)[C@]1(C)O [Erythromycin], the Bliss interaction score is 0.077 in test [1], -0.043 in test [2], -0.0485 in test [3] and 0.0918 in test [4].
On the same counts, the results for `CCC[C@@H]1C[C@@H](C(=O)N[C@@H]([C@H]2O[C@H](SC)[C@H](O)[C@@H](O)[C@H]2O)[C@H](C)Cl)N(C)C1` [Clindamycin] + CC[C@H]1OC(=O)[C@H](C)[C@@H](O[C@H]2C[C@@](C)(OC)[C@@H](O)[C@H](C)O2)[C@H](C)[C@@H](O[C@@H]2O[C@H](C)C[C@H](N(C)C)[C@H]2O)[C@](C)(O)C[C@@H](C)C(=O)[C@H](C)[C@@H](O)[C@]1(C)O [Erythromycin] are 0.0748, -0.0244, -0.0542 and 0.123.
On the same counts, the results for `COc1c(N2C[C@@H]3CCCN[C@@H]3C2)c(F)cc2c(=O)c(C(=O)O)cn(C3CC3)c12` [Moxifloxacin] + C/C(=C\C(=O)OCCCCCCCCC(=O)O)C[C@@H]1OC[C@H](C[C@@H]2O[C@H]2[C@@H](C)[C@H](C)O)[C@@H](O)[C@H]1O [Pseudomonic acid] are 0.0399, -0.019, 0.0227 and 0.072.
Take `CCCCCCCCCC(=O)N[C@H]1[C@H](Oc2c3cc4cc2Oc2ccc(cc2Cl)[C@@H](O[C@@H]2O[C@H](CO)[C@@H](O)[C@H](O)[C@H]2NC(C)=O)[C@@H]2NC(=O)[C@H](NC(=O)[C@@H]4NC(=O)[C@H]4NC(=O)[C@@H](Cc5ccc(c(Cl)c5)O3)NC(=O)[C@H](N)c3ccc(O)c(c3)Oc3cc(O)cc4c3)c3ccc(O)c(c3)-c3c(O[C@H]4O[C@H](CO)[C@@H](O)[C@H](O)[C@@H]4O)cc(O)cc3[C@@H](C(=O)O)NC2=O)O[C@H](CO)[C@@H](O)[C@@H]1O` [Teicoplanin] + CC[C@H]1OC(=O)[C@H](C)C(=O)[C@H](C)[C@@H](O[C@@H]2O[C@H](C)C[C@H](N(C)C)[C@H]2O)[C@](C)(OC)C[C@@H](C)C(=O)[C@H](C)[C@H]2N(CCCCn3cnc(-c4cccnc4)c3)C(=O)O[C@]12C [Telithromycin]: the Bliss interaction score in test [1] (main component drawn) was determined as 0.0347; in test [2] (main component drawn) it was 0.0617; in test [3] (main component drawn), 0.0616; in test [4] (main component drawn), 0.0575.
Take `CC(=O)O[C@H]1C[C@@]2(C)[C@@H](C[C@@H](O)[C@H]3[C@@]4(C)CC[C@@H](O)[C@@H](C)[C@@H]4CC[C@@]32C)/C1=C(\CCC=C(C)C)C(=O)O` [Fusidic acid] + CCCCCCCCCC(=O)N[C@@H]1[C@H]([C@@H]([C@H](O[C@H]1OC2=C3C=C4C=C2OC5=C(C=C(C=C5)[C@H]([C@H]6C(=O)N[C@@H](C7=C(C(=CC(=C7)O)OC8[C@H]([C@H]([C@@H]([C@H](O8)CO)O)O)O)C9=C(C=CC(=C9)[C@H](C(=O)N6)NC(=O)[C@@H]4NC(=O)[C@@H]1C2=CC(=CC(=C2)OC2=C(C=CC(=C2)[C@H](C(=O)N[C@H](CC2=CC(=C(O3)C=C2)Cl)C(=O)N1)N)O)O)O)C(=O)O)O[C@H]1[C@@H]([C@H]([C@@H]([C@H](O1)CO)O)O)NC(=O)C)Cl)CO)O)O [Teicoplanin]: the Bliss interaction score in test [1] (main component drawn) was -0.0459; in test [2] (main component drawn), 0.0374; in test [3] (main component drawn), -0.0424; in test [4] (main component drawn), 0.0761.
